Here are results for five compounds from patent US4200646A, “Method of controlling the growth of microorganisms using nitroalkyl thiocyanates” (International Minerals & Chemical Corporation, priority 1979, dated 1980).

For one series, the system named is microorganisms. As to the kind of experiment: Control of growth of microorganisms in metal working fluids. The settings on record: 500-1000 ppm or more.
The next series concerns bacteria and fungi. As to the kind of experiment: Antimicrobial activity against bacteria and fungi. It counts as cell-based.
The next series concerns Aspergillus niger. As to the kind of experiment: Tube dilution method, minimum inhibitory concentration. It counts as cell-based.
For another series, the system named is Streptococcus fecalis. Described as above. It counts as cell-based.
Another series deals with Penicillium sp. Described as above. It counts as cell-based.
The subject of series [1] is Streptococcus hemolyticus. Described as above. The settings on record: Streptococcus pyogenes. It counts as cell-based.
A short description of series [2]: LD50 in mice by oral administration. To be noted: mouse, in vivo. Here is the method:
The LD50 in mice by oral administration was determined to be 500 mg/kg.

The next series concerns Shigella dysenteriae. As to the kind of experiment: Tube dilution method, minimum inhibitory concentration. It counts as cell-based. To be noted: pH 7.3, read-out: Inhibitory Concn (minimum inhibitory concentration).
The next series concerns Pseudomonas aeruginosa. The series is described as above. It counts as cell-based.
For the next series, the system named is Aspergillus fumigatus. The series is described as above. It counts as cell-based.
Another series has as its system Escherichia coli. The description is as above. It counts as cell-based.
In the next series the test system is Candida albicans. The description is as above. It counts as cell-based.
Series [3] deals with Pasteurella pseudotuberculosis. As to the kind of experiment: microbe, parasite or virus in culture. It counts as cell-based. The settings on record: Yersinia pseudotuberculosis, pH 7.3, read-out: Inhibitory Concn (minimum inhibitory concentration).
A further series deals with Staphyloccus aureus. As to the kind of experiment: Tube dilution method, minimum inhibitory concentration. It counts as cell-based.
Another series has as its system Mycobacterium ranae. The series is described as above. It counts as cell-based.
In another series the test system is microbial contamination. As to the kind of experiment: Microbial contamination of cutting oil emulsion in use. To be noted: emulsion with P-2216 0.1, light mineral oil 20, water 76.9, emulsifying agent 3 parts. The protocol: A cutting oil emulsion is prepared according to the following formula: […]
Light mineral oil 20 parts

Where [4] appears, read: Sabouraud broth pH 5.6, range between highest concentration permitting growth and lowest preventing growth, read-out: Inhibitory Concn (minimum inhibitory concentration).
Setting [5] is: trypticase soya broth pH 7.3, range between highest concentration permitting growth and lowest preventing growth, read-out: Inhibitory Concn (minimum inhibitory concentration).
Where [6] appears, read: pH 5.6, read-out: Inhibitory Concn (minimum inhibitory concentration).
The mark [7] stands for this setting: pH 7.3, read-out: Inhibitory Concn (minimum inhibitory concentration).

Usually LD50 stands for the dose at which mortality reaches 50%.

≈ marks a conversion by molar mass, not a printed value. Entries after “also recorded” stand apart in the source; their conditions may differ. Where two headings read alike, the source gives them in different places.

As for `CCC(SC#N)[N+](=O)[O-]` (centres unmarked) [1-nitropropyl thiocyanate], the “control of growth of microorganisms in metal working fluids” value (shortened to “control of growth of microorganisms”) in the series on microorganisms is “controls the growth of microorganisms for a prolonged period”. The “antimicrobial activity (in words)” value in the series on bacteria and fungi is “effective against a wide spectrum of bacteria and fungi”.

Take `N#CSC1([N+](=O)[O-])CCCCC1` [Example P-2217, 1-nitrocyclohexyl thiocyanate]: the MIC in the series on Aspergillus niger (setting [4]) was in the range of 10 to 50 µg/mL (≈ 53.7 to 268 µM); in the series with Streptococcus fecalis (Streptococcus fecalis, trypticase soya broth pH 7.3, range between highest concentration permitting growth and lowest preventing growth, read-out: Inhibitory Concn (minimum inhibitory concentration)), 50 to 100 µg/mL (≈ 268 to 537 µM); with Penicillium sp. (Penicillium sp., Sabouraud broth pH 5.6, range between highest concentration permitting growth and lowest preventing growth, read-out: Inhibitory Concn (minimum inhibitory concentration)), 10 to 50 µg/mL (≈ 53.7 to 268 µM); in series [1] (Streptococcus hemolyticus, trypticase soya broth pH 7.3, range between highest concentration permitting growth and lowest preventing growth, read-out: Inhibitory Concn (minimum inhibitory concentration)), 50 to 100 µg/mL (≈ 268 to 537 µM); in the series with Shigella dysenteriae, 50 to 100 µg/mL (≈ 268 to 537 µM); in the series with Pseudomonas aeruginosa (setting [5]), 10 to 50 µg/mL (≈ 53.7 to 268 µM). In addition, the MIC in the series on Aspergillus fumigatus (setting [4]) was 1 to 10 µg/mL (≈ 5.37 to 53.7 µM); in the series with Escherichia coli (setting [5]), 10 to 50 µg/mL (≈ 53.7 to 268 µM); in the series with Candida albicans (setting [4]), 10 to 50 µg/mL (≈ 53.7 to 268 µM); in series [3], 10 to 50 µg/mL (≈ 53.7 to 268 µM); in the series on Staphyloccus aureus (Staphyloccus aureus, trypticase soya broth pH 7.3, range between highest concentration permitting growth and lowest preventing growth, read-out: Inhibitory Concn (minimum inhibitory concentration)), 1 to 10 µg/mL (≈ 5.37 to 53.7 µM); in the series with Mycobacterium ranae (Mycobacterium ranae, trypticase soya broth pH 7.3, range between highest concentration permitting growth and lowest preventing growth, read-out: Inhibitory Concn (minimum inhibitory concentration)), 1 to 10 µg/mL (≈ 5.37 to 53.7 µM). The LD50 in series [2] (oral, species not restated in Example 5 (mice in Example 1), read-out: oral LD50) was found to be 150 mg/kg. For the same compound, the “control of growth of microorganisms” value in the series with microorganisms is “controls the growth of microorganisms for a prolonged period”. In the series on bacteria and fungi, the “antimicrobial activity (in words)” value is “effective against both bacteria and fungi; also recorded: effective against a wide spectrum of bacteria and fungi”.

As for `N#CSC[N+](=O)[O-]` [nitromethyl thiocyanate], in the series with microorganisms, the “control of growth of microorganisms” value is “controls the growth of microorganisms for a prolonged period”. Moreover, in the series on bacteria and fungi, the “antimicrobial activity (in words)” value was “effective against a wide spectrum of bacteria and fungi”.

On to `CC(SC#N)[N+](=O)[O-]` (centres unmarked) [1-nitroethyl thiocyanate], for which the “control of growth of microorganisms” value in the series on microorganisms is “controls the growth of microorganisms for a prolonged period”. Further, the “antimicrobial activity (in words)” value in the series on bacteria and fungi was “effective against a wide spectrum of bacteria and fungi”.

For `CC(C)(SC#N)[N+](=O)[O-]` [Example P-2216, 1-methyl-1-nitroethyl thiocyanate], the MIC is 10 to 50 µg/mL (≈ 68.4 to 342 µM) with Aspergillus niger (setting [6]); 50 to 100 µg/mL (≈ 342 to 684 µM) with Streptococcus fecalis (Streptococcus, pH 7.3, read-out: Inhibitory Concn (minimum inhibitory concentration)); 10 to 50 µg/mL (≈ 68.4 to 342 µM) in the series with Penicillium sp. (Penicillium, pH 5.6, read-out: Inhibitory Concn (minimum inhibitory concentration)); 50 to 100 µg/mL (≈ 342 to 684 µM) in series [1] (setting [7]); 10 to 50 µg/mL (≈ 68.4 to 342 µM) in the series on Shigella dysenteriae; 10 to 50 µg/mL (≈ 68.4 to 342 µM) in the series with Pseudomonas aeruginosa (setting [7]). Moreover, the MIC in the series on Aspergillus fumigatus (setting [6]) was in the range of 1 to 10 µg/mL (≈ 6.84 to 68.4 µM); with Escherichia coli (setting [7]), 10 to 50 µg/mL (≈ 68.4 to 342 µM); in the series with Candida albicans (setting [6]) it was 1 to 10 µg/mL (≈ 6.84 to 68.4 µM); in series [3], 1 to 10 µg/mL (≈ 6.84 to 68.4 µM); in the series on Staphyloccus aureus (setting [7]) it was 1 to 10 µg/mL (≈ 6.84 to 68.4 µM); in the series with Mycobacterium ranae (Mycobacterium, pH 7.3, read-out: Inhibitory Concn (minimum inhibitory concentration)) it was 1 to 10 µg/mL (≈ 6.84 to 68.4 µM). For the same compound, in series [2] (mice, oral administration, read-out: LD50), the 50% lethal dose (LD50) turned out to be 500 mg/kg. The “freedom from microbial contamination when used as a cutting oil” value with microbial contamination was “remains free from microbial contamination for a long period of time”.
